In brackets after ≈: the same amount, converted by molar mass.
Key:
Venturia inaequalis = experiment: Fungitoxicity assay against Venturia inaequalis (in vitro, microtiter MIC); format: cell-based; conditions: 168 h, minimum inhibitory concentration, 7 days at 25° C.
Description: The compounds of Examples 1-20 were tested in vitro for fungicidal activity and phytotoxicity. A. The compounds were tested in vitro for fungicidal activity against Pythium ultimum, Botrytis cinerea and Venturia inaequalis. Fungitoxicity assay against Venturia inaequalis: Test compounds were dissolved in dimethylsulfoxide at 1 milligram per milliliter (mg/ml), and 50 ul added to 950 ul of yeast extract-dextrose medium (YED, 0.4% yeast extract, 2% dextrose) to give 50 part per million (ppm) solutions. Minimum inhibitory concentration (MIC) values were determined using a microtiter assay with twofold serial dilutions of the prepared 50 ppm solutions (100 ul) in YED medium. Inoculum consisted of a spore suspension of V. inaequalis in YED medium at 2.5×10^5 spores per ml. […] Results of the testing for fungicidal activity against the above named fungi are set forth below in Table 3 as Pythium EC50 (ppm), Botrytis EC50 (ppm) and Venturia MIC (ppm), respectively.

[1] = Tobacco root assay for phytotoxicity (in vitro root elongation); conditions: 7 days, 27° C., read-out: Tob. EC50
Description: The compounds of Examples 1-20 were tested in vitro for fungicidal activity and phytotoxicity.
B. The compounds were tested in vitro for phytotoxicity in a tobacco root elongation assay.
Tobacco root assay for Phytotoxicity:
A dilution series of test compound was prepared in dimethylsulfoxide and 20 ul of each dilution was added to 20 ml of molten nutrient medium, consisting of Murashige and Skoog salt base, 2% sucrose and 1% agar, to give the desired concentrations of test compound. The mixtures were poured immediately into 9 cm diameter petri dishes. Surface-sterilized tobacco seeds were placed on each plate (20 seeds per plate) and the plates incubated in a vertical position in a 27° C. incubator with a 16 hour photoperiod. After 7 days the mean root lengths were calculated, and EC50 values determined from dose response curves.
Results of the tobacco root assay are set forth below in Table 3 as Tob. EC50 (ppm).

Pythium ultimum = experiment: Fungitoxicity assay against Pythium ultimum (in vitro, mycelial dry weight); format: cell-based; conditions: Globisporangium ultimum, 48 hours at 25° C., read-out: Pythium EC50
Description: The compounds of Examples 1-20 were tested in vitro for fungicidal activity and phytotoxicity. A. The compounds were tested in vitro for fungicidal activity against Pythium ultimum, Botrytis cinerea and Venturia inaequalis. Fungitoxicity assay against Pythium ultimum: A dilution series of test compound was prepared in dimethylsulfoxide, and 0.1 milliliter (ml) of each dilution was added to 19.9 ml of a liquid asparagine-sucrose broth ([…]. and Katznelson, K., 1971, Can. J. […] Each plate was inoculated with a mycelial plug, 7 millimeters (mm) in diameter, taken from the growing edge of a culture of Pythium ultimum grown on potato dextrose agar. Two replicate plates were used for each treatment. The increase in mycelial dry weight was determined after growth for 48 hours at 25° C. with shaking on a gyrotary shaker at 60 revolutions per minute (rpm). EC50 values were calculated from dose response curves. As used herein, the terminology "EC50" means the concentration of test compound required to inhibit growth by 50% as compared to a control lacking the test compound. Results of the testing for fungicidal activity against the above named fungi are set forth below in Table 3 as Pythium EC50 (ppm), Botrytis EC50 (ppm) and Venturia MIC (ppm), respectively.

Botrytis cinerea = experiment: Fungitoxicity assay against Botrytis cinerea (in vitro, colony diameter); format: cell-based; conditions: 48 hours at 25° C., read-out: Botrytis EC50
Description: The compounds of Examples 1-20 were tested in vitro for fungicidal activity and phytotoxicity. A. The compounds were tested in vitro for fungicidal activity against Pythium ultimum, Botrytis cinerea and Venturia inaequalis. Fungitoxicity assay against Botrytis cinerea: […] The mixtures were poured immediately into 9 centimeter (cm) diameter petri dishes. Two replicate plates were used for each treatment. Each plate was inoculated with a 7 mm diameter plug taken from the growing edge of a 5 day old culture of B. cinerea on potato dextrose agar. […] Results of the testing for fungicidal activity against the above named fungi are set forth below in Table 3 as Pythium EC50 (ppm), Botrytis EC50 (ppm) and Venturia MIC (ppm), respectively.

Q: For `CCC(C)(NC(=O)c1ccc(Cl)c(C=NOC)c1)C(=O)CCl` (centres unmarked) [Example 14, N-[3'-(1'-chloro-3'-methyl-2'-oxopentan)]-4-chloro-3-methoxyiminomethylbenzamide], which MIC (Venturia inaequalis) is on record?
A: 25 µg/mL (≈ 72.4 µM)

Q: And the IC50 at 168 h [1]?
A: 1.25 µg/mL (≈ 3.62 µM)

Q: And the IC50 (Pythium ultimum)?
A: 4.68 µg/mL (≈ 13.6 µM)

Q: What about the IC50 (Botrytis cinerea) of the same compound?
A: 28.1 µg/mL (≈ 81.4 µM)

Q: For `CCC(C)(NC(=O)c1cc(Cl)c(C=NOC)c(Cl)c1)C(=O)CCl` (centres unmarked) [Example 20, N-[3'-(1'-chloro-3'-methyl-2'-oxopentan)]-3,5-dichloro-4-methoxyiminobenzamide], which IC50 at 168 h [1] is on record?
A: 1 µg/mL (≈ 2.63 µM)

Q: And the IC50 (Pythium ultimum)?
A: 0.23 µg/mL (≈ 0.606 µM)

Q: For `CCC(C)(NC(=O)c1ccc(C(C)=NOC)cc1)C(=O)CCl` (centres unmarked) [Example 19, 3-(4'-Methoxyiminomethyl(methyl)benzamido)-1-chloro-3-methylpentan-2-one], which MIC (Venturia inaequalis) is on record?
A: > 25 µg/mL

Q: What about the IC50 (Pythium ultimum) of the same compound?
A: > 10 µg/mL

Q: What about the IC50 (Botrytis cinerea) of the same compound?
A: > 100 µg/mL

Q: Which results are given for `CCC(C)(NC(=O)c1cccc(C=NOC(C)(C)C)c1)C(=O)CCl` (centres unmarked) [Example 8]?
A: MIC (Venturia inaequalis): > 25 µg/mL; IC50 at 168 h [1]: 46.8 µg/mL (≈ 133 µM); IC50 (Pythium ultimum): 173 µg/mL (≈ 489 µM); IC50 (Botrytis cinerea): > 100 µg/mL

Q: Which results are given for `CCC(C)(NC(=O)c1ccc(C=NOC)c(Cl)c1)C(=O)CCl` (centres unmarked) [Example 16, N-[3'-(1'-chloro-3'-methyl-2'-oxopentan)]-3-chloro-4-methoxyiminomethylbenzamide]?
A: MIC (Venturia inaequalis): 6.25 µg/mL (≈ 18.1 µM); IC50 at 168 h [1]: 11.3 µg/mL (≈ 32.8 µM); IC50 (Pythium ultimum): 0.58 µg/mL (≈ 1.68 µM); IC50 (Botrytis cinerea): 12.6 µg/mL (≈ 36.5 µM)

Q: For `CCC(C)(NC(=O)c1ccc(C=NOC)cc1)C(=O)CCl` (centres unmarked) [Example 10, 3-(4'-Methoxyiminomethylbenzamido)-1-chloro-3-methylpentan-2-one], which IC50 at 168 h [1] is on record?
A: 21.7 µg/mL (≈ 69.8 µM)

Q: And the IC50 (Pythium ultimum)?
A: 1.57 µg/mL (≈ 5.05 µM)

Q: Which MIC (Venturia inaequalis) does the source give for `CCC(C)(NC(=O)c1cccc(C=NOC)c1)C(=O)C(Cl)Cl` (centres unmarked) [Example 5, 3-(3'-Methoxyiminomethylbenzamido)-1,1-dichloro-3-methylpentan-2-one] here?
A: > 25 µg/mL

Q: And the IC50 (Pythium ultimum)?
A: 16.3 µg/mL (≈ 47.2 µM)

Q: And the IC50 (Botrytis cinerea)?
A: 54.6 µg/mL (≈ 158 µM)

Q: Which MIC (Venturia inaequalis) does the source give for `CCC(C)(NC(=O)c1cccc(C(C)=NOC)c1)C(=O)CCl` (centres unmarked) [Example 17] here?
A: > 25 µg/mL

Q: And the IC50 (Pythium ultimum)?
A: 24.2 µg/mL (≈ 74.5 µM)

Q: What about the IC50 (Botrytis cinerea) of the same compound?
A: 97.3 µg/mL (≈ 300 µM)

Q: Which results are given for `CCC(C)(NC(=O)c1cc(C=NOC)cc(C=NOC)c1)C(=O)CCl` (centres unmarked) [Example 15, N-[3'-(1'-chloro-3'-methyl-2'-oxopentan)]-3,5-dimethoxyiminomethylbenzamide]?
A: MIC (Venturia inaequalis): 1.56 µg/mL (≈ 4.24 µM); IC50 at 168 h [1]: 2.33 µg/mL (≈ 6.33 µM); IC50 (Pythium ultimum): 4.16 µg/mL (≈ 11.3 µM); IC50 (Botrytis cinerea): 4.19 µg/mL (≈ 11.4 µM)

Source: patent US5254584A, “N-acetonylbenzamides and their use as fungicides” (Rohm and Haas Company, priority 1992, dated 1993)
